How the values were obtained:
Settings in all cases: incubation time: 72 h
DU-4475 [1] = test: drug sensitivity score (DSS), CellTiter-Blue viability (DSS (AUC-based score)); higher = stronger viability inhibition; extreme values may be limits of the assay
Description: (§1)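 DSRT with the CellTiter-Blue (resazurin reduction) viability readout, fluorescence 560/590 nm, 72 h incubation. Plates were normalised to DMSO and benzethonium chloride controls. DSS is computed from the area under the fitted dose-response curve (5 or 9 concentrations).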

MDA-MB-436 [2] = test: as above
Description: as §1

MFM-223 = test: as above
Description: as §1

CAL-148 [3] = test: as above
Description: as §1

CAL-51 = test: as above
Description: as §1

BT-474 [4] = test: as above
Description: as §1

BT-549 [5] = test: as above
Description: as §1

SK-BR-3 [6] = test: as above
Description: as §1

DU-4475 [7] = test: normalised viability (% of control), CellTiter-Blue; higher = more viable cells (about 100 = DMSO control)
In short: (§2)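 Normalised viability is given for a single listed concentration of the series. In 384-well plates, breast cancer cell lines were incubated 72 h with compound, then read with CellTiter-Blue (2 h, 37 °C) at 560/590 nm. Per-plate scaling set vehicle to 100 and a positive kill control to 0, with Z'-factor quality control.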

MDA-MB-453 = test: as above
In short: as §2

MDA-MB-436 [8] = test: as above
In short: as §2

CAL-120 = test: as above
In short: as §2

CAL-148 [9] = test: as above
In short: as §2

HCC1143 = test: as above
In short: as §2

MDA-MB-231 = test: as above
In short: as §2

BT-474 [10] = test: as above
In short: as §2

BT-549 [11] = test: as above
In short: as §2

Hs578T = test: as above
In short: as §2

SK-BR-3 [12] = test: as above
In short: as §2

Cc1ccc(C(=O)N(CCCN)[C@@H](c2oc3cc(Cl)ccc3c(=O)c2Cc2ccccc2)C(C)C)cc1
Settings | drug sensitivity score
BT-474 [4] | 21.6
BT-549 [5] | 24.4
CAL-51 | 20.1
CAL-148 [3] | 23.3
DU-4475 [1] | 20.2
MDA-MB-436 [2] | 13.4
MFM-223 | 18.1
SK-BR-3 [6] | 31.6

normalised viability [%]
Settings | 0.3 nM | 1 nM | 3 nM | 10 nM | 100 nM | 1000 nM
BT-474 [10] | – | 117 | – | – | 27.5 | 28.7
BT-549 [11] | – | 87.3 | – | – | 25.1 | 34.8
CAL-120 | – | 53 | – | – | 27.8 | 26.7
CAL-148 [9] | 93 | – | 106 | 16.1 | – | –
DU-4475 [7] | 91.4 | – | 108 | 52.9 | – | –
HCC1143 | – | 83.7 | – | – | 43.2 | 37.5
Hs578T | – | 102 | – | – | 13.6 | 13.6
MDA-MB-231 | – | 37.1 | – | – | 25.8 | 24.2
MDA-MB-436 [8] | – | 97.8 | – | – | 60.6 | 59.2
MDA-MB-453 | 123 | – | 103 | 23.8 | – | –
SK-BR-3 [12] | – | 45 | – | – | 20.8 | 18.2

CO[C@H]1/C=C\C=C(/C)C(=O)NC2=CC(=O)C(NCCN(C)C)=C(C[C@@H](C)C[C@H](OC)[C@H](O)[C@@H](C)/C=C(\C)[C@@H]1OC(N)=O)C2=O [Alvespimycin]
Settings | drug sensitivity score
BT-474 [4] | 14.6
BT-549 [5] | 20
CAL-51 | 14
CAL-148 [3] | 16.9
DU-4475 [1] | 21.9
MDA-MB-436 [2] | 16.1
MFM-223 | 18.7
SK-BR-3 [6] | 20.9

normalised viability [%]
Settings | 0.3 nM | 1 nM | 3 nM | 10 nM | 100 nM | 1000 nM
BT-474 [10] | – | 116 | – | – | 28.3 | 27.8
BT-549 [11] | – | 104 | – | – | 33.5 | 21.2
CAL-120 | – | 108 | – | – | 26.7 | 17.4
CAL-148 [9] | 107 | – | 102 | 101 | – | –
DU-4475 [7] | 99 | – | 93.1 | 84.5 | – | –
HCC1143 | – | 103 | – | – | 46.8 | 37.7
Hs578T | – | 102 | – | – | 43.6 | 40.1
MDA-MB-231 | – | 99 | – | – | 35.2 | 28.3
MDA-MB-436 [8] | – | 90.9 | – | – | 28.9 | 20.4
MDA-MB-453 | 115 | – | 87.4 | 61.7 | – | –
SK-BR-3 [12] | – | 97.7 | – | – | 19 | 16.3

N.N.[Cl][Pt][Cl] [Cisplatin]
Settings | drug sensitivity score
BT-474 [4] | 0
BT-549 [5] | 0
CAL-51 | 0
CAL-148 [3] | 0
DU-4475 [1] | 0
MDA-MB-436 [2] | 0
MFM-223 | 0
SK-BR-3 [6] | 0

normalised viability [%]
Settings | 3 nM | 10 nM | 30 nM | 100 nM | 1000 nM | 10000 nM
BT-474 [10] | – | 115 | – | – | 122 | 135
BT-549 [11] | – | 87.5 | – | – | 87.6 | 88.8
CAL-120 | – | 90.3 | – | – | 93.3 | 102
CAL-148 [9] | 92.1 | – | 102 | 103 | – | –
DU-4475 [7] | 105 | – | 116 | 88.8 | – | –
HCC1143 | – | 88.2 | – | – | 89.3 | 89.2
Hs578T | – | 100 | – | – | 139 | 122
MDA-MB-231 | – | 99.2 | – | – | 101 | 104
MDA-MB-436 [8] | – | 102 | – | – | 87.1 | 94.8
MDA-MB-453 | 124 | – | 117 | 110 | – | –
SK-BR-3 [12] | – | 99.1 | – | – | 105 | 111

Cn1c(Nc2ccc(C(F)(F)F)cc2)nc2cc(Oc3ccnc(-c4ncc(C(F)(F)F)[nH]4)c3)ccc21 [RAF265]
Settings | drug sensitivity score
BT-474 [4] | 0
BT-549 [5] | 5.55
CAL-51 | 3.43
CAL-148 [3] | 0
DU-4475 [1] | 3.23
MDA-MB-436 [2] | 2.55
MFM-223 | 5.45
SK-BR-3 [6] | 0

normalised viability [%]
Settings | 0.3 nM | 1 nM | 3 nM | 10 nM | 100 nM | 1000 nM
BT-474 [10] | – | 118 | – | – | 107 | 96.4
BT-549 [11] | – | 87.3 | – | – | 80.8 | 78.5
CAL-120 | – | 88.5 | – | – | 64.5 | 51.3
CAL-148 [9] | 89.4 | – | 87.1 | 89.2 | – | –
DU-4475 [7] | 102 | – | 95.6 | 116 | – | –
HCC1143 | – | 90.1 | – | – | 78 | 72.5
Hs578T | – | 97.8 | – | – | 90.9 | 78.3
MDA-MB-231 | – | 110 | – | – | 86.1 | 53.8
MDA-MB-436 [8] | – | 120 | – | – | 79.6 | 83.6
MDA-MB-453 | 99.2 | – | 109 | 98.3 | – | –
SK-BR-3 [12] | – | 96.2 | – | – | 96.3 | 106

C=C(c1ccc(C(=O)O)cc1)c1cc2c(cc1C)C(C)(C)CCC2(C)C [Bexarotene]
Settings | drug sensitivity score
BT-474 [4] | 0
BT-549 [5] | 0
CAL-51 | 0
CAL-148 [3] | 1.2
DU-4475 [1] | 0
MDA-MB-436 [2] | 0
MFM-223 | 0
SK-BR-3 [6] | 0

normalised viability [%]
Settings | 3 nM | 10 nM | 30 nM | 100 nM | 1000 nM | 10000 nM
BT-474 [10] | – | 103 | – | – | 95.7 | 97.7
BT-549 [11] | – | 89.5 | – | – | 75.6 | 74.5
CAL-120 | – | 101 | – | – | 108 | 106
CAL-148 [9] | 110 | – | 92.7 | 99.8 | – | –
DU-4475 [7] | 98.7 | – | 102 | 103 | – | –
HCC1143 | – | 123 | – | – | 117 | 104
Hs578T | – | 99 | – | – | 105 | 75.3
MDA-MB-231 | – | 91.2 | – | – | 86.5 | 105
MDA-MB-436 [8] | – | 90.1 | – | – | 97.2 | 81
MDA-MB-453 | 91 | – | 91.3 | 74.5 | – | –
SK-BR-3 [12] | – | 100 | – | – | 89.8 | 83.1

From the supplement of paper PMC4862054
